# Test results taken from patent US20260200896A1, “INHIBITORS OF SPNS2 AND USES THEREOF” (NEW YORK UNIVERSITY, priority 2022, published 2026).
# Tested on: Female C57BL/6 mice
# Test: Animal study: lymphocytes and red blood cells in blood enumerated by hematology analyzer 24 hours after oral gavage
# Assay type: in vivo
# Details: oral gavage 400 micromol/kg, 24 hours later, vs vehicle (PEG300)
# Method: Female C57BL/6 mice 6-8 weeks old were treated by oral gavage with vehicle (PEG300) or compound 510 at 400 micromol/kg. 24 hours later, lymphocytes and red blood cells (RBC) in blood were enumerated by hematology analyzer (XT-2000i). The results are depicted in FIG. 1.
smiles,measurement,setting,value
"CC(C)C(=O)N(CCO)[C@H]1CCN(c2nc3cc(F)c(F)cc3nc2-c2cccc(OC(F)(F)F)c2)C1 [Compound 510, (S)—N-(1-(6,7-difluoro-3-(3-(trifluoromethoxy)-phenyl)quinoxalin-2-yl)pyrrolidin-3-yl)-N-(2-hydroxyethyl)isobutyramide]",number of lymphocytes in blood,FIG. 1A,substantially reduced
same,number of red blood cells (RBC) in blood,FIG. 1B,remained unchanged
